Experimental data taken from paper PMC4107924, “Structure and function study of the complex that synthesizes S-adenosylmethionine” (IUCrJ, 2014).
pKd: −log10 of the molar value.

Key:
Assay type in all cases: binding
[1] = biological target: T1, MATβV2 (Homo sapiens, UniProt Q9NZL9); test: ITC; conditions: read-out: NADP → MATβV2
T1 construct: gene MAT2B; recombinant in E. coli BL21(DE3), pET-28a(+); His tag cut with thrombin; free subunit
T1 sequence (Q9NZL9 1-323 isoform Q9NZL9-2): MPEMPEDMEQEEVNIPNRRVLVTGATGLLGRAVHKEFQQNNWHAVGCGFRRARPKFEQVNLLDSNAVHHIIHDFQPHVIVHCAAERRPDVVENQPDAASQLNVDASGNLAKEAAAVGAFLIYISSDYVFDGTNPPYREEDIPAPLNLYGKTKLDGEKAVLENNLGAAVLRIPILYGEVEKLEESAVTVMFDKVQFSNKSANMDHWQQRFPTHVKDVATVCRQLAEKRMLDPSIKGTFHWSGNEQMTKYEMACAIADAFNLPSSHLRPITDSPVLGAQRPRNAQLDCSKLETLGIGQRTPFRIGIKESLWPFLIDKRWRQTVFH

[2] = biological target: T2, MATβV1 (Homo sapiens, UniProt Q9NZL9); test: ITC; conditions: read-out: NADP → MATβV1
T2 construct: gene MAT2B; recombinant in E. coli BL21(HC41), HIS-parallel vector; His tag cut with TEV protease; free subunit
T2 sequence (Q9NZL9 whole entry): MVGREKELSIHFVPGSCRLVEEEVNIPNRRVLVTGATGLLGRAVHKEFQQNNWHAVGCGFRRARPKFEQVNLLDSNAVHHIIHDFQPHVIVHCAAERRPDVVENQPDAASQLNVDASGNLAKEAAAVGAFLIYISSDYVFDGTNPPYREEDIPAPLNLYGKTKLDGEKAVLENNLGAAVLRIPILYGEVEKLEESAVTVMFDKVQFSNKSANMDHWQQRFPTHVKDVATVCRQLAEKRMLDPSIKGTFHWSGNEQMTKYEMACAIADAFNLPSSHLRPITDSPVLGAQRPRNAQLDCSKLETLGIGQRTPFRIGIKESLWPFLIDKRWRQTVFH

[3] = biological target: T3, MAT(α2)4(βV2)2 (Homo sapiens, UniProt P31153); test: X-ray crystal structure, […] Å; conditions: crystal co-crystallized and soaked with ATP only; ADO and PO4 at active site; Mg
T3 construct: gene MAT2A; recombinant in E. coli BL21(DE3), assembled in vitro; His tags cut (TEV for MATα2, thrombin for MATβV2); 258 kDa, 4:2 complex; with Methionine adenosyltransferase 2 subunit beta
T3 sequence (P31153 whole entry): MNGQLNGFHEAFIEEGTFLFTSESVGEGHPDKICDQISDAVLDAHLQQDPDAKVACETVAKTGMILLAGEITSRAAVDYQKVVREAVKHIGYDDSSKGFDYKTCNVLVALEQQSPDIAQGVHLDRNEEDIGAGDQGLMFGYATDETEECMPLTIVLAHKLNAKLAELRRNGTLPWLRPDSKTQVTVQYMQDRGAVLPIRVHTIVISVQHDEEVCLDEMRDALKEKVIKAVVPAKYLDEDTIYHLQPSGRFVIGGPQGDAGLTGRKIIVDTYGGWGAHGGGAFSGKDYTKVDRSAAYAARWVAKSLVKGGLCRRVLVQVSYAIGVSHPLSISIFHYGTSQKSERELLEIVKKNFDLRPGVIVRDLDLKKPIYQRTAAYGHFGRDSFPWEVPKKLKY
T3 sequence (Q9NZL9 21-334 partner limits assumed): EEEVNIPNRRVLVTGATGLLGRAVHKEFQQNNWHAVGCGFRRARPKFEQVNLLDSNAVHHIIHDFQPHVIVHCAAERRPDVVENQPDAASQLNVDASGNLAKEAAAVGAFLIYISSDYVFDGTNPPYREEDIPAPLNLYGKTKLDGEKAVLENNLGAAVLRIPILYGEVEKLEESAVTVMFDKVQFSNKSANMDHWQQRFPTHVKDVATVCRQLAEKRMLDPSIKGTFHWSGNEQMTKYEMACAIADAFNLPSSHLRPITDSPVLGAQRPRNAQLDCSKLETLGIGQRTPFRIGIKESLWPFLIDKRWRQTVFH

[4] = biological target: T3, MAT(α2)4(βV2)2; test: X-ray crystal structure, […] Å; conditions: crystal co-crystallized and soaked with AMPPNP and methionine; SAMe also bound; Mg
[5] = biological target: T3, MAT(α2)4(βV2)2; test: X-ray crystal structure, […] Å; conditions: active site at MATα2 dimer interface; Mg; two of four sites occupied; SAMe also in 4ndn

NC(=O)c1ccc[n+]([C@@H]2O[C@H](COP(=O)(O)OP(=O)(O)OC[C@H]3O[C@@H](n4cnc5c(N)ncnc54)[C@H](OP(=O)(O)O)[C@@H]3O)[C@@H](O)[C@H]2O)c1 [NADP]
pKd [1]: 5.05 | pKd [2]: 5.07

Nc1ncnc2c1ncn2[C@@H]1O[C@H](CO)[C@@H](O)[C@H]1O [adenosine]
X-ray crystal structure, 3.3 Å [3]: shows adenosine molecule (ADO) and PO4 at the active site

O=P(O)(O)NP(=O)(O)OP(=O)(O)O [PPNP]
X-ray crystal structure, 2.35 Å [4]: Crystal co-crystallized and soaked with AMPPNP and methionine shows SAMe and PPNP

C[S+](CC[C@H](N)C(=O)O)C[C@H]1O[C@@H](n2cnc3c(N)ncnc32)[C@H](O)[C@@H]1O (some centres unmarked) [SAMe]
X-ray crystal structure, 2.6 Å [5]: the presence of SAMe, adenosine (ADO) or PPNP
